# Data reported in ChEMBL document CHEMBL1144041, “Docking-based 3D-QSAR study for 11beta-HSD1 inhibitors” (Bioorg Med Chem Lett, 2008).
# pIC50: −log10 of the molar value.
# Molecular target: 11-beta-hydroxysteroid dehydrogenase 1 (Homo sapiens, UniProt P28845)
# Assay: Inhibition of 11beta-HSD1
# Chain of 11-beta-hydroxysteroid dehydrogenase 1 (P28845 whole entry): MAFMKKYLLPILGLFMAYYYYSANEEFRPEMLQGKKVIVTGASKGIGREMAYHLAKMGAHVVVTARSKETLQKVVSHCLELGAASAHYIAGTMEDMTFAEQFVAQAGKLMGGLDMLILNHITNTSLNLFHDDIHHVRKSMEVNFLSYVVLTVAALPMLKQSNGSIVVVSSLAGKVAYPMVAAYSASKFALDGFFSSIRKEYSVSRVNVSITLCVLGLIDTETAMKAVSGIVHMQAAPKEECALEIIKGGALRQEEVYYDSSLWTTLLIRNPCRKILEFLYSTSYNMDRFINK
row,SMILES,pIC50
1,CC(C)(Oc1ccc(Cl)cc1)C(=O)N[C@H]1C2CCCC1C[C@H](C(N)=O)C2,7.66
2,O=C(c1ccc(NCc2ccc(F)cc2)cc1)N1CCC[C@H]2CCCC[C@@H]21,7.30
3,CCCc1nnc(C23CC4CC(CC(C4)C2)C3)n1CC,7.28
4,CNc1ccc(C(C)(C)C(=O)N[C@H]2C3CC4CC2C[C@](C(N)=O)(C4)C3)cn1,7.54
5,O=C(Nc1cccc(C(=O)N2CCC[C@H]3CCCC[C@@H]32)c1)c1ccccc1,7.85
6,O=C(Nc1ccc(C(=O)N2CCC[C@H]3CCCC[C@@H]32)cc1)c1ccc(Cl)cc1,5.96
7,CCC1CCCCN1C(=O)c1ccc(NC(=O)c2ccc(Cl)cc2Cl)cc1 (stereo not drawn),5.97
8,CC(C)(Oc1ccc(N2CCOCC2)cn1)C(=O)N[C@H]1C2CC3CC1C[C@](C(N)=O)(C3)C2,7.36
9,CC(C)(Oc1ccc(C#N)cn1)C(=O)N[C@H]1C2COCC1C[C@H](C(N)=O)C2,7.96
10,CN1CCN(c2ccc(OC(C)(C)C(=O)N[C@H]3C4CC5CC3C[C@](C(N)=O)(C5)C4)nc2)CC1,6.73
11,O=C(Cc1ccccc1)Nc1ccc(C(=O)N2CCC[C@H]3CCCC[C@@H]32)cc1,6.42
12,CC(C)(Oc1ccc(Cl)cc1)C(=O)N[C@H]1C2CC3CC1C[C@](Cc1nnn[nH]1)(C3)C2,7.39
13,CCCn1c(CC)nnc1C12CC3CC(CC(C3)C1)C2,7.96
14,CCCCCC12CCC(c3nnc4n3CCCCC4)(CC1)CC2,8.30
15,Cn1c(-c2ccc(C=O)cc2Cl)nnc1C12CCC(c3nc(-c4ccc(F)cc4)no3)(CC1)CC2,7.66
16,O=C(c1ccc(C(=O)N2CCC[C@H]3CCCC[C@@H]32)cc1)N1CCCc2ccccc21,6.74
17,CC(C)(C(=O)N[C@H]1C2CC3CC1C[C@](C(N)=O)(C3)C2)c1ccc(C#N)cn1,7.85
18,CC1CCCCN1C(=O)c1ccc(NC(=O)c2ccc(Cl)cc2Cl)cc1 (stereo not drawn),5.10
19,CCCCn1c(C)nnc1C12CC3CC(CC(C3)C1)C2,7.14
20,O=C(Nc1ccc(C(=O)N2CCC[C@H]3CCCC[C@@H]32)cc1)c1ccccc1Cl,5.80
21,CC(C)(Oc1ccc(C#N)cn1)C(=O)N[C@H]1C2CC3CC1C[C@](C(N)=O)(C3)C2,7.55
22,CC(C)(C(=O)N[C@H]1C2CC3CC1C[C@](C(N)=O)(C3)C2)c1ccc(N2CCOCC2)nc1,7.33
23,CC(C)(Oc1ccc(-n2cccn2)cn1)C(=O)N[C@H]1C2CC3CC1C[C@](C(N)=O)(C3)C2,8.30
